Reference: patent US20230372309A1, “ALPHA-2 ADRENERGIC RECEPTOR ANTAGONIST” (Kyoto University, priority 2020, published 2023)

How the values were obtained:
a1A adrenergic receptor = target: T1, a1A adrenergic receptor (Homo sapiens, UniProt P35348); assay: Binding affinity to a1 adrenergic receptors, tritium-labeled prazosin tracer; conditions: tritium-labeled prazosin as tracer
T1 sequence (P35348 1-466): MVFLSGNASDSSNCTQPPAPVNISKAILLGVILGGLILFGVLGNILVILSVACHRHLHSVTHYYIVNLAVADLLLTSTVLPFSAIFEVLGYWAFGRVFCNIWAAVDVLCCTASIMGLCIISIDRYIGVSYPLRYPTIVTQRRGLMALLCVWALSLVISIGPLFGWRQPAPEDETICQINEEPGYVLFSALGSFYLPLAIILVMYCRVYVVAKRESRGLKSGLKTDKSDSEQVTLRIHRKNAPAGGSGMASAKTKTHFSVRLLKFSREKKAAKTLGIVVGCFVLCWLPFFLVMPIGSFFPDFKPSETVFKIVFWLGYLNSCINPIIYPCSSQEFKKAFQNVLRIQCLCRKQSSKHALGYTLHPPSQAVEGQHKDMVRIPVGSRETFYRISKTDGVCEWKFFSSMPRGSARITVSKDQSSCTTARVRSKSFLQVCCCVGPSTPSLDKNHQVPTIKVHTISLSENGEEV
Experimental: (§1) [Binding Affinity to a1 Adrenergic Receptors]
(§2) The compound 1 was assayed for its inhibitory activity against a1A adrenergic receptor and a1B adrenergic receptor using prazosin with a 7-methoxy group labeled with tritium as a tracer, and binding affinity was examined. Prazosin is an antagonist that specifically binds to a1 adrenergic receptors.

a1B adrenergic receptor = target: T2, a1B adrenergic receptor (Homo sapiens, UniProt P35368); assay: as above; conditions: tritium-labeled prazosin as tracer
T2 sequence (P35368 1-520): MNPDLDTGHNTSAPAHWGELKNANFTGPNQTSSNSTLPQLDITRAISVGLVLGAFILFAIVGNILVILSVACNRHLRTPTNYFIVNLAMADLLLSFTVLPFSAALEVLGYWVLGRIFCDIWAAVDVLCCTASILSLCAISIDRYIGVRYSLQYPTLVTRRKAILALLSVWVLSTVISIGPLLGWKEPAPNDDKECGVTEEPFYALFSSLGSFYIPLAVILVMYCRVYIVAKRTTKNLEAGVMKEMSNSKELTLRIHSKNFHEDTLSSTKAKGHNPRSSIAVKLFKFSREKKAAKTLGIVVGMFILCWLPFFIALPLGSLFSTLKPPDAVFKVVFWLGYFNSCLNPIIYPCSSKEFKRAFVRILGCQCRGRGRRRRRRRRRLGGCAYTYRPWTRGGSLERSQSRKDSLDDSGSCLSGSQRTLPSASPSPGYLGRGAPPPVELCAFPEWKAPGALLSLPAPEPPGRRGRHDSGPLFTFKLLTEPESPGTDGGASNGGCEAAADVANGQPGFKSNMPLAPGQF
Experimental: as §1, §2

a2A adrenergic receptor [1] = target: T3, a2A adrenergic receptor (Homo sapiens, UniProt P08913); assay: Binding affinity to a2 adrenergic receptors, tritium-labeled rauwolscine tracer; conditions: tritium-labeled rauwolscine as tracer
T3 construct: expressed in transfected cells; host or cells: HEK293
T3 sequence (P08913 1-465): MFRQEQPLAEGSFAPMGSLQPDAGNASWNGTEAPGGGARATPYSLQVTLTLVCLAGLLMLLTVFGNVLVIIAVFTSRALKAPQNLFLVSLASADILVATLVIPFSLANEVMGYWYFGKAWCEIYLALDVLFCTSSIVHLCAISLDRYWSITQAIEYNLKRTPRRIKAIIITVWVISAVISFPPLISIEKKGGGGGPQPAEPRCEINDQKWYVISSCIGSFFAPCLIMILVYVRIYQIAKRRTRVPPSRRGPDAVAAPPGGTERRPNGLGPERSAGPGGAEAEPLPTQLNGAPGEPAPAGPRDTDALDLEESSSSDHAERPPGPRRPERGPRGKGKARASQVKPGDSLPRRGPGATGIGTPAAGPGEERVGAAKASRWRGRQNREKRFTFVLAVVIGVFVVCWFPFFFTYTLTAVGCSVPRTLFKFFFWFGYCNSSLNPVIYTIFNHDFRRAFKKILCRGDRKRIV
Experimental: (§3) [Binding Affinity to a2 Adrenergic Receptors]
(§4) The compound 1 was assayed for its inhibitory activity against a2A adrenergic receptor and a2B adrenergic receptor using rauwolscine with a methyl group labeled with tritium as a tracer, and binding affmity was examined. RauwoLscine is an antagonist that specifically binds to a2 adrenergic receptors.

a2B adrenergic receptor [2] = target: T4, a2B adrenergic receptor (Homo sapiens, UniProt P18089); assay: as above; conditions: tritium-labeled rauwolscine as tracer
T4 construct: expressed in transfected cells; host or cells: HEK293
T4 sequence (P18089 1-450): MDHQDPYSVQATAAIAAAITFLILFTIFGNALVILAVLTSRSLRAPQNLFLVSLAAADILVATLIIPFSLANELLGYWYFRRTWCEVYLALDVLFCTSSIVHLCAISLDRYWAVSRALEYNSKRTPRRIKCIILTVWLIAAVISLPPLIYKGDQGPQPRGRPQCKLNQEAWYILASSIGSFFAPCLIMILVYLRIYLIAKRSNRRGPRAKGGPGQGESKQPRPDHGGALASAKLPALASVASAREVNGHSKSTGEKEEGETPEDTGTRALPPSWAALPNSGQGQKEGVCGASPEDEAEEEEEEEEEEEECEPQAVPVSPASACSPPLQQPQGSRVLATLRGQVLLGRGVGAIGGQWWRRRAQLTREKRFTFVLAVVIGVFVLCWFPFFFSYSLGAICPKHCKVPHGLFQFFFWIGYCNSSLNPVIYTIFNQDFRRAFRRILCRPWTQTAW
Experimental: as §3, §4

a2A adrenergic receptor [3] = target: T3, a2A adrenergic receptor; assay: TGFα shedding assay in transfected HEK293 cells, noradrenaline stimulation; assay type: cell-based; conditions: 5 nM Noradrenaline stimulation, read-out: IC50, shedding assay, α2A
Experimental: (§5) The TGFα shedding assay is known as an assay by which a signal transduction pathway of a GPCR can be detected and measured (Patent Document 3). When the signal transduction pathway of a GPCR is activated, fusion proteins of membrane-bound alkaline phosphatase (AP) and TGFα are cleaved by TACE (TNFα converting enzyme), which is a membrane protease, and AP-TGFα is released from the cells. This released AP is measured.
(§6) The TGFα shedding assay was performed according to the method disclosed in WO2015/128894A1.
(§7) Specifically, human embryonic kidney HEK293 cells were transfected with a plasmid vector containing the cDNA of alkaline phosphatase (AP) fused TGFα, a plasmid vector containing the cDNA of a fusion protein (Gaq/i) of an N-terminal peptide fragment of Ga protein Gaq and a C-terminal peptide fragment of Ga protein Gai, and a plasmid vector containing the cDNA of a target GPCR, 24 hours later a compound was added and cultured for 30 minutes, a GPCR agonist (5 nM noradrenaline) was added, one hour later half of the culture supernatant was transferred to a new plate to prepare a supernatant plate, and the remaining plate was used as a cell plate. Ap-nitrophenyl phosphate solution was added to each plate and allowed to stand, and when 0 hours and 2 hours had passed, the absorbance at 405 nm was measured using a plate reader.
(§8) The measured value was converted to AP activity (%) according to the method described in WO2015/128894A1, and the obtained value was used as % Shedding.

a2B adrenergic receptor [4] = target: T4, a2B adrenergic receptor; assay: as above; assay type: cell-based; conditions: for IC50: 5 nM Noradrenaline stimulation, HEK293 cells, read-out: IC50, shedding assay, α2B
Experimental: as §5, §6, §7, §8

a2C adrenergic receptor = target: T5, a2C adrenergic receptor (Homo sapiens, UniProt P18825); assay: as above; assay type: cell-based; conditions: 5 nM Noradrenaline stimulation, read-out: IC50, shedding assay, α2C
T5 construct: expressed in transfected cells; host or cells: HEK293
T5 sequence (P18825 1-462): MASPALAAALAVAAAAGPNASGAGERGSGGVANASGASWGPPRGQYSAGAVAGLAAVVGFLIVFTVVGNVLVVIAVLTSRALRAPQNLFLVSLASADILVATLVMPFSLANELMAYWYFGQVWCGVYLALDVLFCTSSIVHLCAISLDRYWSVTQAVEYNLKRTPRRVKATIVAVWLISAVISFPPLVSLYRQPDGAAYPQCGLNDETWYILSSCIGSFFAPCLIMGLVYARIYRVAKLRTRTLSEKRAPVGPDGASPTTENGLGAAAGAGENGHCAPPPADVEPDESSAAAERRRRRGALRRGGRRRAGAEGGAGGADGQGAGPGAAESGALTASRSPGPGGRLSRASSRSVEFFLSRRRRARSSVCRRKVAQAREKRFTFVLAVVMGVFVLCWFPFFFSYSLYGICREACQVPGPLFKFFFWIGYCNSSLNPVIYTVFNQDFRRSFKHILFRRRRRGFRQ
Experimental: as §5, §6, §7, §8

Row | Compound | binding affinity to the a1A adrenergic receptor (a1A adrenergic receptor) | binding affinity to the a1B adrenergic receptor (a1B adrenergic receptor) | binding affinity to a2A adrenergic receptor (a2A adrenergic receptor [1]) | binding affinity to a2B adrenergic receptor (a2B adrenergic receptor [2]) | binding affinity to a2B adrenergic receptor compared with a2A adrenergic receptor (a2B adrenergic receptor [2]; a2B versus a2A) | IC50 (a2A adrenergic receptor [3]) [µM] | IC50 (a2B adrenergic receptor [4]) [µM] | binding affinity (inhibitory activity) to a2B adrenergic receptor compared with a2A and a2C adrenergic receptor (a2B adrenergic receptor [4]; shedding assay, Table 1, a2B versus a2A and a2C) | IC50 (a2C adrenergic receptor) [µM]
1 | CCN1/C(=C/C(C)=O)Sc2ccc(F)cc21 [Compound 1, (1Z)-1-(3-ethyl-5-fluoro-2(3H)-benzothiazolylidene)-2-propanone] | did not exhibit binding affinity | did not exhibit binding affinity | exhibited selective binding affinity | exhibited selective binding affinity | higher | > 30 | 1.2 | higher | > 30
2 | CCN1/C(=C/C(C)=O)Sc2ccc(OC)cc21 [Compound 2] |  |  |  |  |  | > 30 | > 30 |  | > 30
3 | CCN1/C(=C/C(C)=O)Sc2cc(OC)ccc21 [Compound 3, (1Z)-1-(3-ethyl-6-methoxy-2(3H)-benzothiazoylidene)-2-propanone] |  |  |  |  |  | > 30 | > 30 |  | > 30
